The results in this text go back to ChEMBL document CHEMBL4819077, “Design, synthesis, and biological evaluation of diosgenin-indole derivatives as dual-functional agents for the treatment of Alzheimer's disease” (Eur J Med Chem, 2021).

Active and inactive are the calls of the source. No cut-off for these calls is given here.

Series [1] concerns SH-SY5Y. Kind of series: Neuroprotection against Abeta-induced oxidative stress in human SH-SY5Y cells assessed as cell protection at 1 mM incubated for 2 hr before Abeta(1-42) challenge and measured after 24 hrs by MTT assay. The series is classed as functional. Particulars: time 26 hrs. A general note: Formazan colour is commonly taken as a measure of viable cells.
Series [2] relates to SH-SY5Y. Nature of the series: Neuroprotection against H202-induced oxidative stress in human SH-SY5Y cells assessed as cell protection at 1 mM preincubated for 2 hr before H202 challenge and measured after 24 hrs by MTT assay. Type of series: functional. Particulars: time 26 hrs.
Series [3] relates to SH-SY5Y. Nature of the series: Neuroprotection against 6-OHDA-induced oxidative stress in human SH-SY5Y cells assessed as cell protection at 1 mM preincubated for 2 hr before 6-OHDA challenge and measured after 24 hrs by MTT assay. The series is classed as functional. The settings on record: time 26 hrs.
Series [4] relates to Mus musculus. Nature of the series: Neuroprotection against icv infused amyloid beta (1 to 42)-induced ICR mouse model of Alzheimer's disease assessed as rescue of decrease neuronal cells in hippocampal at to 4 to 20 mg/kg, po administered daily for 7 days by HE staining. Type of series: functional, organism-based. Particulars: dose 4-20 mg/kg, time 7.0 day.
Series [5] has as its system SH-SY5Y. Nature of the series: Neuroprotection against Abeta-induced cytotoxicity in human SH-SY5Y cells assessed as increase in cell viability at 100 uM incubated for 2 hr before Abeta(1-42) challenge and measured after 24 hrs by MTT assay. Type of series: functional, cell-based.
Series [6] concerns SH-SY5Y. Nature of the series: Neuroprotection against H202-induced human SH-SY5Y cell damage assessed as decrease in ROS accumulation at 50 uM incubated for 2 hr before H202 challenge and measured after 24 hrs by DCFDA staining based fluorescence microscopy. Type of series: functional. Particulars: time 26.0 hrs.
Series [7] deals with SH-SY5Y. Kind of series: Neuroprotection against H202-induced cytotoxicity in human SH-SY5Y cells assessed as increase in cell viability upto 50 uM incubated for 2 hr before H202 challenge and measured after 24 hrs by MTT assay. Type of series: functional, cell-based. The settings on record: dose microM <=50, time 2.0 hrs.
The nature of series [8]: Acute toxicity in ICR mouse assessed as abnormalities in lung at 500 mg/kg, po administered […] 14 days by HE staining based assay. The series is classed as organism-based. Particulars: in vivo, 336 h, time 14 day.
For series [9], the system named is SH-SY5Y. Kind of series: Neuroprotection against Abeta-induced oxidative stress in human SH-SY5Y cells assessed as cell protection at 10 uM incubated for 2 hr before Abeta(1-42) challenge and measured after 24 hrs by MTT assay. The series is classed as functional. Particulars: time 26 hrs.
Series [10] concerns SH-SY5Y. Nature of the series: Neuroprotection against H202-induced oxidative stress in human SH-SY5Y cells assessed as cell protection at 10 uM preincubated for 2 hr before H202 challenge and measured after 24 hrs by MTT assay. The series is classed as functional.
Series [11] can be described thus: Acute toxicity in ICR mouse assessed as abnormalities in liver at 500 mg/kg, po administered […] 14 days by HE staining based assay. The series is classed as organism-based. The settings on record: in vivo, 336 h, time 14 day.
Series [12] relates to SH-SY5Y. Kind of series: Neuroprotection against 6-OHDA-induced oxidative stress in human SH-SY5Y cells assessed as cell protection at 10 uM preincubated for 2 hr before 6-OHDA challenge and measured after 24 hrs by MTT assay. The series is classed as functional. The settings on record: time 26 hrs.
A short description of series [13]: Acute toxicity in ICR mouse assessed as abnormalities in kidney at 500 mg/kg, po administered […] 14 days by HE staining based assay. Type of series: organism-based. Particulars: in vivo, 336 h, time 14 day.
A short description of series [14]: Acute toxicity in ICR mouse assessed as body weight loss at 500 mg/kg, po administered as single dose measured after 14 days. The series is classed as organism-based. The settings on record: in vivo, 336 h, time 14 day.
Series [15] can be described thus: Acute toxicity in ICR mouse assessed as abnormalities in spleen at 500 mg/kg, po administered […] 14 days by HE staining based assay. Particulars: in vivo, 336 h, time 14 day. Type of series: organism-based.
Series [16] relates to SH-SY5Y. Nature of the series: Cytotoxicity against human SH-SY5Y cells assessed as reduction in cell viability measured after 24 hrs by MTT assay. Type of series: cell-based.
The nature of series [17]: Acute toxicity in ICR mouse assessed as abnormal behaviors at 500 mg/kg, po administered as single dose measured after 14 days. Type of series: organism-based. The settings on record: in vivo, 336 h, time 14 day.
The subject of series [18] is Mus musculus. Nature of the series: Neuroprotection against icv infused amyloid beta (1 to 42)-induced ICR mouse model of Alzheimer's disease assessed as rescue of pyknotic nucleus in hippocampal at to 4 to 20 mg/kg, po administered daily for 7 days by HE staining. Type of series: functional, organism-based. The settings on record: dose 4-20 mg/kg, time 7.0 day.
Series [19] in a line: Acute toxicity in ICR mouse assessed as mortality at 500 mg/kg, po administered as single dose measured after 14 days. The series is classed as organism-based. Particulars: in vivo, 336 h, time 14 day.
For series [20], the system named is SH-SY5Y. Nature of the series: Neuroprotection against 6-OHDA-induced cytotoxicity in human SH-SY5Y cells assessed as increase in cell viability upto 50 uM incubated for 2 hr before 6-OHDA challenge and measured after 24 hrs by MTT assay. The settings on record: dose microM <=50, time 2.0 hrs. Type of series: functional, cell-based.
Series [21] deals with Mus musculus. Nature of the series: Improvement in learning and spatial memory in icv infused amyloid beta (1 to 42)-induced ICR mouse model of Alzheimer's disease assessed as improved target quadrant exploration time at 4 to 20 mg/kg, po administered daily for 7 days starting from 7 days post surgery by Morris water maze test. The series is classed as functional, organism-based. The settings on record: dose 4-20 mg/kg, time 7.0 day.

Series [22] relates to SH-SY5Y. Kind of series: Neuroprotection against 6-OHDA-induced cytotoxicity in human SH-SY5Y cells assessed as increase in cell viability at 100 uM incubated for 2 hr before 6-OHDA challenge and measured after 24 hrs by MTT assay. Type of series: functional, cell-based. Particulars: time 26.0 hrs.
The nature of series [23]: Acute toxicity in ICR mouse assessed as abnormalities in heart at 500 mg/kg, po administered […] 14 days by HE staining based assay. The series is classed as organism-based. Particulars: in vivo, 336 h, time 14 day.
In series [24] the test system is SH-SY5Y. Kind of series: Neuroprotection against Abeta-induced cytotoxicity in human SH-SY5Y cells assessed as increase in cell viability upto 50 uM incubated for 2 hr before Abeta(1-42) challenge and measured after 24 hrs by MTT assay. Type of series: functional, cell-based. Particulars: dose microM <=50, time 2.0 hrs.
Series [25] relates to SH-SY5Y. Nature of the series: Neuroprotection against H202-induced human SH-SY5Y cell damage assessed as decrease in ROS accumulation at 10 uM incubated for 2 hr before H202 challenge and measured after 24 hrs by DCFDA staining based fluorescence microscopy. Type of series: functional. Particulars: time 26.0 hrs.
Series [26] concerns SH-SY5Y. Nature of the series: Neuroprotection against H202-induced cytotoxicity in human SH-SY5Y cells assessed as increase in cell viability at 100 uM incubated for 2 hr before H202 challenge and measured after 24 hrs by MTT assay. The settings on record: time 26.0 hrs. The series is classed as functional, cell-based.

On to `CC(=O)N[C@@H](CS)C(=O)O` [ACETYLCYSTEINE], for which the Activity came out at 67.6% with SH-SY5Y [1], 84.73% with SH-SY5Y [2] and 83.59% in the series with SH-SY5Y [3].
As to `COc1ccc2[nH]cc(CCNC(=O)Oc3ccc4c(c3)CC[C@@H]3[C@@H]4CC[C@]4(C)[C@@H]5[C@H](C[C@@H]34)O[C@]3(CC[C@@H](C)CO3)[C@H]5C)c2c1`, the result in the series on Mus musculus [4], in the series on SH-SY5Y [7], in the series with Mus musculus [18], in the series on SH-SY5Y [20], in the series with Mus musculus [21] and in the series on SH-SY5Y [24] was Active. Also, the outcome in the series on SH-SY5Y [25] was Active. Further, the outcome with SH-SY5Y [5], in the series on SH-SY5Y [6], in the series with SH-SY5Y [22] and in the series with SH-SY5Y [26] was inactive. The Activity result is listed as “Non-Toxic” in series [8]; 54.4% with SH-SY5Y [9]; 52.9% in the series on SH-SY5Y [10]; “Non-Toxic” in [11]; 38.4% in the series with SH-SY5Y [12]; “Non-Toxic” in [13]. Also, the Activity entry (in series [14]; in series [15]; in the series with SH-SY5Y [16]; in [17]; in series [19]; in [23]) was “Non-Toxic” in each case.
